PMC3152598 (Biochemical pharmacology, 2011)
One block for each molecule: values may come before it.

Assays:
human A3 AR [1] = biological target: T1, human A3 AR (Homo sapiens, UniProt P0DMS8); test: cell-based; settings: CHO, read-out: Ca2+ Emax
T1 sequence (P0DMS8 1-318): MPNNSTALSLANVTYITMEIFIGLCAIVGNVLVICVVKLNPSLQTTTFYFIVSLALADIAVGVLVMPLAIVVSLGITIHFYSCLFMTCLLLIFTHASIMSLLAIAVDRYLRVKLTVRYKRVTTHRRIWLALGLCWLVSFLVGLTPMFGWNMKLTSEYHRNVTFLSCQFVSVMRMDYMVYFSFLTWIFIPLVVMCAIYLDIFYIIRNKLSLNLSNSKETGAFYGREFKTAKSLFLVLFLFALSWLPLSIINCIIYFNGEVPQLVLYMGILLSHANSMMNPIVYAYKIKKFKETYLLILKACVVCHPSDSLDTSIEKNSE

human A3 AR [2] = biological target: T1, human A3 AR; test: cell-based; settings: CHO, read-out: β-arrestin2 Emax
human A3 AR [3] = biological target: T1, human A3 AR; test: Membrane hyperpolarization; settings: for Emax: CHO, read-out: hyperpolarization Emax; for agonist activity in membrane hyperpolarization assay, in words: agonist alone
human A3 AR [4] = biological target: T1, human A3 AR; test: Cyclic AMP accumulation assay
human A3 AR [5] = biological target: T1, human A3 AR; settings: no agonist
human A3 AR [6] = biological target: T1, human A3 AR; settings: LUF6000 10 μM
human A3 AR [7] = biological target: T1, human A3 AR; settings: agonist Cl-IB-MECA; LUF6000 1, 3, and 10 μM
other subtypes of ARs = settings: concentrations up to 10 μM; cited from earlier work

- Emax (human A3 AR [1]): 55.2 ± 3.4%
- Emax (human A3 AR [2]): 104 ± 5%
- Emax (human A3 AR [3]): 58.3 ± 3.6%
- Emax (human A3 AR [4]; CHO, read-out: cyclic AMP Emax): 95.8 ± 4.8%
Compound: CNC(=O)[C@H]1O[C@@H](n2cnc3c(NCc4cccc(I)c4)nc(Cl)nc32)[C@H](O)[C@@H]1O [Cl-IB-MECA, 2-chloro-N^6-(3-iodobenzyl)adenosine-5′-N-methyluronamide]

Compound: Clc1ccc(Nc2nc3ccccc3c3[nH]c(C4CCC4)nc23)cc1Cl [LUF5999, N-(3,4-dichloro-phenyl)-2-cyclobutyl-1H-imidazo[4,5-c]quinolin-4-amine]
- effect on agonist action (efficacy and potency), in words (human A3 AR [4]; agonist Cl-IB-MECA): concentration-dependently increasing efficacy while decreasing potency

Compound: Clc1ccc(Nc2nc3ccccc3c3[nH]c(C4CCCCC4)nc23)cc1Cl [LUF6000, N-(3,4-dichloro-phenyl)-2-cyclohexyl-1H-imidazo[4,5-c]quinolin-4-amine]
- effect of modulator alone on intracellular calcium mobilization (human A3 AR [5]): had no effect
- enhancement of the effect of Cl-IB-MECA (human A3 AR [6]; agonist Cl-IB-MECA): less than 10%
- enhancement of the effect of NECA (human A3 AR [6]; agonist NECA): less than 10%
- enhancement of the efficacy of MRS542 (human A3 AR [6]; partial agonist MRS542): about 40%
- effect on the efficacy of Cl-IB-MECA in inducing ERK1/2 activation (human A3 AR [7]): had no effect
- binding at the other subtypes of ARs (other subtypes of ARs): did not bind appreciably
- further increase of the efficacy of Cl-IB-MECA at higher concentration (human A3 AR [3]; agonist Cl-IB-MECA, LUF6000 30 μM): did not induce a further increase
- effect on the efficacy of adenosine (human A3 AR [3]; agonist adenosine, data not shown): did not show any effect
- enhancement of the residual activity of inosine, MRS541 and LUF5833 (human A3 AR [3]; ligands inosine, MRS541, LUF5833): did not show any enhancement
- effect of modulator alone on membrane hyperpolarization (human A3 AR [3]; no agonist): did not show any effect
- concentration at which the efficacy-enhancing effect reaches a maximum (human A3 AR [4]; agonist Cl-IB-MECA): approx. 10 μM
- concentration from which the efficacy-enhancing effect starts (human A3 AR [4]; agonist Cl-IB-MECA): ≤ 1 µM
- relative enhancement of the efficacy of Cl-IB-MECA (human A3 AR [4]; agonist Cl-IB-MECA, LUF6000 10 μM): 50%
- further enhancement at higher concentration (human A3 AR [4]; agonist Cl-IB-MECA, LUF6000 30 μM, data not shown): did not cause further enhancement
- effect on agonist potency (human A3 AR [4]; agonist Cl-IB-MECA, modulator 10 μM or lower): did not significantly affect
- maximum enhancement of the efficacy of NECA (human A3 AR [4]; agonist NECA, LUF6000 10 μM): about 16%
- efficacy of inosine in presence of LUF6000, % of the level of NECA (human A3 AR [4]; agonist inosine, LUF6000 10 μM): 85%
- effect on the inability of MRS1220 and MRS1191 to inhibit forskolin-stimulated cyclic AMP levels (human A3 AR [4]; nonnucleoside A3 AR antagonists MRS1220 and MRS1191, data not shown): did not show any effect
- effect on the efficacy of CCPA (human A3 AR [4]; nucleoside antagonist CCPA): no effect
- effect on the efficacy of MRS542 (human A3 AR [4]; nucleoside antagonist MRS542): no effect
- efficacy of LUF5833, % of the control level (agonist alone) (human A3 AR [4]; partial agonist LUF5833, LUF6000 10 μM): over 200%
- efficacy of MRS541, % of the control level (agonist alone) (human A3 AR [4]; partial agonist MRS541, LUF6000 10 μM): over 200%

Compound: Clc1ccc(Nc2nc3ccccc3c3[nH]cnc23)cc1Cl [LUF6001, N-(3,4-dichloro-phenyl)-1H-imidazo[4,5-c]quinolin-4-amine]
- effect on agonist action (efficacy and potency), in words (human A3 AR [4]; agonist Cl-IB-MECA): slightly decreased both the efficacy and potency

- agonist activity in membrane hyperpolarization assay, in words (human A3 AR [3]): did not show any significant activation
Compound: OC[C@H]1O[C@@H](n2cnc3c(NCc4cccc(I)c4)ncnc32)[C@H](O)[C@@H]1O [MRS541, N^6-(3-iodobenzyl)adenosine]

- Emax (human A3 AR [1]): 7.5 ± 2.5%
- Emax (human A3 AR [2]): 41.1 ± 3.2%
- Emax (human A3 AR [3]): -3.8 ± 5.6%
- agonist activity in membrane hyperpolarization assay, in words (human A3 AR [3]): did not show any agonist activity
Compound: OC[C@H]1O[C@@H](n2cnc3c(NCc4cccc(I)c4)nc(Cl)nc32)[C@H](O)[C@@H]1O [MRS542, 2-chloro-N^6-(3-iodobenzyl)adenosine]

- agonist activity in membrane hyperpolarization assay, in words (human A3 AR [3]): equally efficacious as NECA
Compound: Nc1ncnc2c1ncn2[C@@H]1O[C@H](CO)[C@@H](O)[C@H]1O [adenosine]

- agonist activity in membrane hyperpolarization assay, in words (human A3 AR [3]): did not show any significant activation
Compound: O=c1[nH]cnc2c1ncn2[C@@H]1O[C@H](CO)[C@@H](O)[C@H]1O [inosine]
